# Laboratory results: patent publication US8299070B2, “Indole compounds and pharmaceutical use thereof” (Japan Tobacco Inc., priority 2009, dated 2012)
# Biological target: T1, hITK enzyme (FLAG-tagged full-length hITK) (Homo sapiens, UniProt Q08881)
# T1 construct: strongly expressing FLAG-tagged full-length hITK in Sf9 cells; FLAG; made in house; host or cells: Sf9 insect cells (ITK); Escherichia coli (GST-SLP76 substrate)
# T1 sequence (Q08881 1-620): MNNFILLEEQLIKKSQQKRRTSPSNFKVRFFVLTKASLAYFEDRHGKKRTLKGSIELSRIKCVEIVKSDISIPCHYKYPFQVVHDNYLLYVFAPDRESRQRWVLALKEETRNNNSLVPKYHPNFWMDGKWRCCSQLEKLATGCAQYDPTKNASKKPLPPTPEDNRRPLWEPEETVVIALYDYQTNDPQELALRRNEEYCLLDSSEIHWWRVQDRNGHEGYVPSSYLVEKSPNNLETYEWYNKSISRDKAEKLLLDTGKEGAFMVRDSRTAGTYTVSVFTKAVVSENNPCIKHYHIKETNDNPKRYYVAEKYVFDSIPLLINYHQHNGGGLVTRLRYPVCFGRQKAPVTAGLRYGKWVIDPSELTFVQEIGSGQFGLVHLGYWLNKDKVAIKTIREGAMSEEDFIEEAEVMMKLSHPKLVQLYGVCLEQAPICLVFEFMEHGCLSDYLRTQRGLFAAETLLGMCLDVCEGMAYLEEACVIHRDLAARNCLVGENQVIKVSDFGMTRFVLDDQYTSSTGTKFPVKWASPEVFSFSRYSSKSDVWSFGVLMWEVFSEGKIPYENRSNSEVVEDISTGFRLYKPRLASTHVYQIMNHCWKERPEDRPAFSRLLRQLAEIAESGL
# Test: ITK inhibitory activity (HTRF kinase assay, biotinylated GST-SLP76 substrate)
# Assay type: biochemical
# Conditions: ATP concentration of the substrate solution 6 μmol/L (Examples 380 and 381)
# In short: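 Sf9-expressed hITK (50 ng/mL enzyme solution) reacted 10 min at RT in MOPS pH 7.0, 10 mmol/L MgCl2, 1 mmol/L DTT with E. coli SLP76 aa95–175 substrate; substrate solution held 100 µmol/L ATP (6 µmol/L for selected compounds). HTRF 665/620 ratio, blank-corrected; IC50 interpolated between two concentrations bracketing 50% inhibition.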
row,IC50 [nM],Compound
1,2,CC(NCCOCC(=O)O)C(=O)N(C)c1ccc2cc(-c3n[nH]c4c3CCC(C)(C)C4)[nH]c2c1 (centres unmarked) [Example 380]
2,2,C[C@H](C(=O)N(C)c1ccc2cc(-c3n[nH]c4c3CCC(C)(C)C4)[nH]c2c1)N1CCOCC1 [Example 381]

# Same assay, conditions: IC50 calculated from the 2 test compound concentrations sandwiching 50% ITK inhibitory rate
row,Compound,IC50 [nM]
1,CC1(C)CCc2c(-c3cc4cc(C(=O)N5CCCC5)ccc4[nH]3)n[nH]c2C1 [Example 332],46
2,CC1(C)CCc2c(-c3cc4cc(C(=O)N5CCCCC5)ccc4[nH]3)n[nH]c2C1 [Example 333],106
3,CC1(C)CCc2c(-c3cc4cc(C(=O)N5CCc6[nH]cnc6C5)ccc4[nH]3)n[nH]c2C1 [Example 334],31
4,CC1(C)CCc2c(-c3cc4cc(C(=O)N5C[C@@H](O)[C@@H](O)C5)ccc4[nH]3)n[nH]c2C1 [Example 335],26
5,CC1(C)CCc2c(-c3cc4cc(C(=O)N5CCN(C(=O)OC(C)(C)C)CC5)ccc4[nH]3)n[nH]c2C1 [Example 336],78
6,CCN1CCN(C(=O)c2ccc3[nH]c(-c4n[nH]c5c4CCC(C)(C)C5)cc3c2)CC1 [Example 337],49
7,CO[C@H]1CN(C(=O)c2ccc3[nH]c(-c4n[nH]c5c4CCC(C)(C)C5)cc3c2)C[C@H]1OC [Example 338],33
8,CN(C(=O)c1ccccc1)c1ccc2[nH]c(-c3n[nH]c4c3CCC(C)(C)C4)cc2c1 [Example 339],842
9,CCC(=O)N(C)c1ccc2[nH]c(-c3n[nH]c4c3CCC(C)(C)C4)cc2c1 [Example 340],129
10,CN(C(=O)C1CCOCC1)c1ccc2[nH]c(-c3n[nH]c4c3CCC(C)(C)C4)cc2c1 [Example 341],333
11,CC(C)CC(=O)N(C)c1ccc2[nH]c(-c3n[nH]c4c3CCC(C)(C)C4)cc2c1 [Example 342],245
12,CN(C(=O)CO)c1ccc2[nH]c(-c3n[nH]c4c3CCC(C)(C)C4)cc2c1 [Example 343],135
13,CC1(C)CCc2c(-c3cc4cc(NC(=O)c5ccccc5)ccc4[nH]3)n[nH]c2C1 [Example 344],278
14,CCC(=O)Nc1ccc2[nH]c(-c3n[nH]c4c3CCC(C)(C)C4)cc2c1 [Example 345],88
15,CO[C@H]1CC[C@@H](C(=O)N(C)c2ccc3cc(-c4n[nH]c5c4CCC(C)(CO)C5)[nH]c3c2)CC1 (some centres unmarked) [Example 346],5
16,COCC1(C)CCc2c(-c3cc4ccc(N(C)C(=O)CN5CCCCC5=O)cc4[nH]3)n[nH]c2C1 (centres unmarked) [Example 347],4
17,COCC1(C)CCc2c(-c3cc4ccc(N(C)C(=O)[C@H]5CC[C@@H](OC)CC5)cc4[nH]3)n[nH]c2C1 (some centres unmarked) [Example 348],8
18,CN(C(=O)C1CCCC1)c1ccc2cc(-c3n[nH]c4c3CCC(C)(CO)C4)[nH]c2c1 (centres unmarked) [Example 349],2
19,CN(C(=O)c1ccccc1)c1ccc2cc(-c3n[nH]c4c3CCCC4)[nH]c2c1 [Example 350],62
20,CCC(=O)N(C)c1ccc2cc(-c3n[nH]c4c3CCCC4)[nH]c2c1 [Example 351],24
21,COCC(=O)N(C)c1ccc2cc(-c3n[nH]c4c3CCCC4)[nH]c2c1 [Example 352],37
22,COCC(=O)N(C)c1ccc2cc(-c3n[nH]c4c3CC[C@@H](C)C4)[nH]c2c1 [Example 353],16
23,CCC(=O)N(C)c1ccc2cc(-c3n[nH]c4c3CC[C@@H](C)C4)[nH]c2c1 [Example 354],16
24,CCC(=O)N(C)c1ccc2cc(-c3n[nH]c4c3CCC(C)C4)[nH]c2c1 (centres unmarked) [Example 355],9
25,COCC(=O)N(C)c1ccc2cc(-c3n[nH]c4c3CCC(C)C4)[nH]c2c1 (centres unmarked) [Example 356],9
26,CC1CCc2c(-c3cc4ccc(N(C)C(=O)c5ccccc5)cc4[nH]3)n[nH]c2C1 (centres unmarked) [Example 357],29

# Results, then the compound that gave them:
row,IC50 [nM],Compound
1,38,C[C@@H]1CCc2c(-c3cc4ccc(N(C)C(=O)c5ccccc5)cc4[nH]3)n[nH]c2C1 [Example 358]
2,21,CC(C)OCC(=O)N(C)c1ccc2cc(-c3n[nH]c4c3CCCC4)[nH]c2c1 [Example 359]
3,67,CC(=O)N(C)c1ccc2cc(-c3n[nH]c4c3CCCC4)[nH]c2c1 [Example 360]
4,20,CC(C)CC(=O)N(C)c1ccc2cc(-c3n[nH]c4c3CCCC4)[nH]c2c1 [Example 361]
5,12,CN(C(=O)COc1ccccc1)c1ccc2cc(-c3n[nH]c4c3CCCC4)[nH]c2c1 [Example 362]
6,485,CN(C(=O)OCc1ccccc1)c1ccc2cc(-c3n[nH]c4c3CC(OCc3ccccc3)C(C)(C)C4)[nH]c2c1 (centres unmarked) [Example 363]
7,45,CCC(=O)N(C)c1ccc2cc(-c3n[nH]c4c3CC(OCc3ccccc3)C(C)(C)C4)[nH]c2c1 (centres unmarked) [Example 364]
8,45,CCC(=O)N(C)c1ccc2cc(-c3n[nH]c4c3CC(O)CC4)[nH]c2c1 (centres unmarked) [Example 365]
9,82,COCC(=O)N(C)c1ccc2cc(-c3n[nH]c4c3CC(O)CC4)[nH]c2c1 (centres unmarked) [Example 366]
10,75,CN(C(=O)c1ccccc1)c1ccc2cc(-c3n[nH]c4c3CC(O)CC4)[nH]c2c1 (centres unmarked) [Example 367]
11,131,CCC(=O)N(C)c1ccc2cc(-c3n[nH]c4c3CC(OC)CC4)[nH]c2c1 (centres unmarked) [Example 368]
12,207,COCC(=O)N(C)c1ccc2cc(-c3n[nH]c4c3CC(OC)CC4)[nH]c2c1 (centres unmarked) [Example 369]
13,204,COC1CCc2[nH]nc(-c3cc4ccc(N(C)C(=O)c5ccccc5)cc4[nH]3)c2C1 (centres unmarked) [Example 370]
14,112,CCC(=O)N(C)c1ccc2cc(-c3n[nH]c4c3CC(OC(C)C)CC4)[nH]c2c1 (centres unmarked) [Example 371]
15,11,CCC(=O)N(C)c1ccc2cc(-c3n[nH]c4c3CC(OC)C(C)(C)C4)[nH]c2c1 (centres unmarked) [Example 372]
16,8,CCC(=O)N(C)c1ccc2cc(-c3n[nH]c4c3CC(O)C(C)(C)C4)[nH]c2c1 (centres unmarked) [Example 373]
17,130,CC(=O)Nc1ccc2cc(-c3n[nH]c4c3CCC(C)(C)C4)[nH]c2c1 [Example 374]
18,110,C[C@@H](C(=O)Nc1ccc2cc(-c3n[nH]c4c3CCC(C)(C)C4)[nH]c2c1)N1CCOCC1 [Example 375]
19,2,CC(NCCO)C(=O)N(C)c1ccc2cc(-c3n[nH]c4c3CCC(C)(C)C4)[nH]c2c1 (centres unmarked) [Example 376]
20,6,CC(N)C(=O)N(C)c1ccc2cc(-c3n[nH]c4c3CCC(C)(C)C4)[nH]c2c1 (centres unmarked) [Example 377]
21,2,CC(C(=O)N(C)c1ccc2cc(-c3n[nH]c4c3CCC(C)(C)C4)[nH]c2c1)N1CCOC(O)C1 (centres unmarked) [Example 378]
22,4,CC(C(=O)N(C)c1ccc2cc(-c3n[nH]c4c3CCC(C)(C)C4)[nH]c2c1)N(CCO)CC(=O)O (centres unmarked) [Example 379]
